{
  "source": "paper PMC10054553",
  "about": "“Development of the First ^18F-Labeled Radiohybrid-Based Minigastrin Derivative with High Target Affinity and Tumor Accumulation by Substitution of the Chelating Moiety” (Pharmaceutics, 2023)",
  "key": {"[1]": {"assay": "µPET/CT imaging in an AR42J tumor-bearing mouse", "type": "in vivo, mice", "conditions": "100 pmol, n = 1", "procedure": "Biodistribution studies (n = 4) and µSPECT/CT as well as µPET/CT imaging (using a MILabs VECTor^4 small-animal SPECT/PET/OI/CT device, MILabs, Utrecht, The Netherlands) at 1 and 24 h p.i. were carried out as previously published. For all ^177Lu-labeled compounds, approximately 2–3 MBq (100 pmol)—and for the ^18F-labeled analog, approximately 7 MBq (100 pmol)—were administered. For all competition studies, 2.90 mg/kg (40 nmol) of [^natLu]Lu-DOTA-MGS5 (10^−3 M in phosphate-buffered saline) were co-administered.\nMoreover, the chemically identical compound, [^18F]F-[^natLu]Lu-DOTA-rhCCK-18, was evaluated via µPET/CT in a AR42J tumor-bearing mouse (n = 1), which confirmed high tumor and kidney uptake at 1 h p.i. and low overall off-target accumulation (Figure 5, right).\nFigure 5 Representative µSPECT/CT images of [^177Lu]Lu-DOTA-rhCCK-18 at 1 and 24 h p.i. (left) and µPET/CT image of [^18F]F-[^natLu]Lu-DOTA-rhCCK-18 at 1 h p.i. (right) in AR42J tumor-bearing CB17- SCID mice (100 pmol each). Tumors (T) are indicated by white arrows. Kidney (K) and tumor (T) values are depicted at the bottom. TEXT PRINTED IN THE PICTURE: [^177Lu]Lu-DOTA-rhCCK-18: T: 24.1 %ID/g (1 h p.i.); K: 97.2 %ID/g (1 h p.i.); T: 25.4 %ID/g (24 h p.i.); K: 134 %ID/g (24 h p.i.) | [^18F]F-[^natLu]Lu-DOTA-rhCCK-18: T: 31.2 %ID/g (1 h p.i.); K: 146 %ID/g (1 h p.i.)"}, "[2]": {"assay": "Lipophilicity (logD7.4), n-octanol/PBS pH 7.4", "type": "physicochemical", "procedure": "Cell-based experiments and determination of lipophilicity (logD7.4) were performed as previously published. A detailed description of the in vitro experiments is provided in the Supplementary Materials.\nCell Culture. CCK-2R-expressing rat pancreatic cancer cells AR42J (CLS GmbH, Eppelheim, Germany) were cultivated in monolayers in CELLSTAR® cell culture flasks acquired from Greiner Bio-One GmbH (Frickenhausen, Germany) at 37°C in a humidified atmosphere (5% CO2) using a HERAcell 150i-Incubator (Thermo Fisher Scientific Inc., Waltham, United States). The nutrient medium RPMI 1640 medium, supplemented with 5 mM L-Gln 5 mL non-essential amino acids (100×) and 10% FCS, was used. Furthermore, a Dulbecco’s PBS solution with 0.1% EDTA (v/v) was applied to detach the cells for cell passaging. The detached cells were counted using a Neubauer hemocytometer (Paul Marienfeld, Lauda-Königshofen, Germany). In addition, all operations under sterile conditions were accomplished using a MSC-Advantage safety workbench (Thermo Fisher Scientific Inc., Waltham, United States).\nDetermination of IC50. AR42J cells (2.0 × 10^5 cells/well) were seeded into 24-well plates 24 ± 2 h prior to testing using 1 mL of nutrient medium (RPMI 1640, 5 mM L-Gln, 5 mL non-essential amino acids (100×), 10% FCS). Cells were incubated at 37°C in a humidified atmosphere (5% CO2).\nAfter the removal of the medium, each well was washed with 500 μL PBS. For the cell-based assay, 200 μL of the nutrient medium (+5% BSA), [ 177Lu]Lu-DOTA-PP-F11N (25 μL, 0.3 pmol) as a radiolabeled reference and 25 μL of the peptide of interest in increasing concentrations (10 −10 to 10−4 M) were added to the cells in triplicate. Thereafter, the assay was incubated for 3 h at 37°C and the supernatant was collected. The cells were washed with 300 μL PBS and the collected supernatant fractions were unified.\nAfter lysis of the cells with NaOH (300 μL, 1 N) for 15 min, the respective wells were washed with NaOH (300 μ L, 1 N) and both fractions were unified. The radioactivity of both the supernatant and the lysed fractions were quantified using a γ-counter (PerkinElmer Inc., Waltham, United States). The obtained data were evaluated via the GraphPad PRISM software (GraphPad Software Inc., La Jolla, United States), which calculates the half-maximal inhibitory concentration (IC50) of the peptides.\nInternalization Studies. For the determination of the internalization kinetics of the various peptides, AR42J cells (3.0 × 10^5 cells/well) were seeded into polylysine-coated 24-well plates, adding 1 mL of nutrient medium. Afterwards, the cells were incubated for 24 ± 2 h at 37°C in a humidified atmosphere […]\nOn the day of the experiment, the medium was removed, and each well was washed with nutrient medium (300 μL). Afterwards 200 μL of nutrient medium, 25 μL of the 177Lu-labeled peptide (0.3 pmol, n = 6) and either 25 μL of nutrient medium for internalization studies ( n = 3) or 25 μL of [natLu]Lu-DOTA-PP-F11N (10 μmol) for competition studies ( n = 3) were added. Thereafter, the assay was incubated for various time points (1, 2, 4 and 6 h) at 37°C in a humidified atmosphere (5% CO2). After incubation, the cells were put on ice for at least 1 min to stop internalization kinetics and the supernatant was collected. Then, the cells were washed with an ice-cold nutrient medium (300 μL) and both fractions were unified. […] The radioactivity of the supernatant, the acid wash and the lysed fractions were quantified using a γ-counter. […]"}, "[3]": {"assay": "Stability studies in human serum", "type": "in vitro ADME", "conditions": "37 °C; for SiOH-containing analog (%): 24 h, n = 3, analog with hydrolyzed SiFA moiety; for remaining at 24 h, 5 µM: human, n = 3, read-out: Intact peptide (%)", "procedure": "In vitro stability studies in human serum after incubation at 37 °C for 24 h were performed as described in the Supplemental Material.\nStability Studies in Human Serum. The 177Lu- as well as 67Ga-labeled CCK-2R ligands (1 nmol,\napprox. 5 MBq) were incubated for 24 h in human serum (200 μL) at 37 °C. After incubation, ice-cold\nEtOH (125 μL) and MeCN (375 μL) were added and the suspension was centrifuged for 5 min at\n5000 rpm. Then, the supernatant was transferred into new vials and centrifuged for another 5 min at\n5000 rpm. After separating the precipitate from the solution, the stability of the ligands was determined"}, "CCK-2R": {"target": "T1, CCK-2R (Rattus norvegicus, UniProt P30553)", "T1 construct": "CCK-2R-expressing rat pancreatic cancer cells AR42J; host or cells: AR42J (rat pancreatic cancer cells)", "T1 sequence (P30553 1-452)": "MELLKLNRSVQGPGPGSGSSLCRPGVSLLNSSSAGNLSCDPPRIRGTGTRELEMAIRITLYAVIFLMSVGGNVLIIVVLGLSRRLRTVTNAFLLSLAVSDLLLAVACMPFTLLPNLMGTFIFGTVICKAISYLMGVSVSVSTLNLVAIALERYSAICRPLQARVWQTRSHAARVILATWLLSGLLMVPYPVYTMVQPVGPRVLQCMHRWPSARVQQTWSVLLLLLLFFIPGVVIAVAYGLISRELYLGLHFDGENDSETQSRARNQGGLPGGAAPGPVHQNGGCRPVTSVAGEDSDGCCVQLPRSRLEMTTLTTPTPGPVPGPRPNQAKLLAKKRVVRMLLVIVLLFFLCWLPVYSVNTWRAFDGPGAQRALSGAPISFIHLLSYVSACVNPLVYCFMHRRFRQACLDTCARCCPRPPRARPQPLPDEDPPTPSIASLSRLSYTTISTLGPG", "design": "method as in earlier work", "conditions": "natLu-labeled peptide; AR42J cells, [177Lu]Lu-DOTA-PP-F11N 0.3 pmol/well, 3 h, 37 °C, n = 3; identical conditions; cited from earlier work"}},
  "note": "Like-named read-outs stand apart in the source and are kept apart here.",
  "data": [
    {"smiles": "CCCC[C@H](NC(=O)[C@H](Cc1c[nH]c2ccccc12)NC(=O)CNC(=O)[C@H](Cc1ccc(O)cc1)NC(=O)[C@H](C)NC(=O)CC[C@@H](NC(=O)CC[C@@H](NC(=O)CC[C@@H](NC(=O)CC[C@@H](NC(=O)CC[C@@H](NC(=O)CC[C@@H](NC(=O)CC[C@@H](NC(=O)CC[C@@H](NC(=O)[C@@H](CNC(=O)c1ccc([Si](F)(C(C)(C)C)C(C)(C)C)cc1)NC(=O)CN1CCN(CC(=O)O)CCN(CC(=O)O)CCN(CC(=O)O)CC1)C(=O)O)C(=O)O)C(=O)O)C(=O)O)C(=O)O)C(=O)O)C(=O)O)C(=O)O)C(=O)N[C@@H](CC(=O)O)C(=O)N[C@@H](Cc1ccccc1)C(N)=O", "note": "[[^18F]F-[^natLu]Lu-DOTA-rhCCK-18, metal not drawn]", "values": [
      {"measurement": "tissue uptake at 1 h", "setting": "[1]; CB17-SCID, mouse, kidney, total radioactivity, 1 h p.i., read-out: Kidney (K) value, µPET/CT", "result": 146, "unit": "%ID/g"},
      {"measurement": "tissue uptake at 1 h", "setting": "[1]; CB17-SCID, mouse, tumor, total radioactivity, 1 h p.i., read-out: Tumor (T) value, µPET/CT", "result": 31.2, "unit": "%ID/g"},
      {"measurement": "tissue uptake at 1 h", "setting": "[1]; bone, µPET/CT mouse, read-out: bone uptake", "result": 1.69, "unit": "%ID/g"}
    ]},
    {"smiles": "CCCC[C@H](NC(=O)[C@H](Cc1c[nH]c2ccccc12)NC(=O)CNC(=O)[C@H](Cc1ccc(O)cc1)NC(=O)[C@H](C)NC(=O)CC[C@@H](NC(=O)CC[C@@H](NC(=O)CC[C@@H](NC(=O)CC[C@@H](NC(=O)CC[C@@H](NC(=O)CC[C@@H](NC(=O)CC[C@@H](NC(=O)CC[C@@H](NC(=O)[C@@H](CNC(=O)c1ccc([Si](F)(C(C)(C)C)C(C)(C)C)cc1)NC(=O)CN1CCN(CC(=O)O)CCN(CC(=O)O)CCN(CC(=O)O)CC1)C(=O)O)C(=O)O)C(=O)O)C(=O)O)C(=O)O)C(=O)O)C(=O)O)C(=O)O)C(=O)N[C@@H](CC(=O)O)C(=O)N[C@@H](Cc1ccccc1)C(N)=O", "note": "[[^18F]F-[^natLu]Lu-DOTA-rhCCK-18] [metal not drawn]", "values": [
      {"measurement": "logD7.4", "setting": "[2]; n-octanol/PBS pH 7.4", "result": "−2.71 ± 0.04"}
    ]},
    {"smiles": "CCCC[C@H](NC(=O)[C@H](Cc1c[nH]c2ccccc12)NC(=O)CNC(=O)[C@H](Cc1ccc(O)cc1)NC(=O)[C@H](C)NC(=O)[C@@H](CCC(=O)O)NC(=O)[C@@H](CCC(=O)O)NC(=O)[C@@H](CCC(=O)O)NC(=O)[C@@H](CCC(=O)O)NC(=O)[C@@H](CCC(=O)O)NC(=O)[C@@H](CCC(=O)O)NC(=O)CC[C@H](C(=O)O)N1CCN(CC(=O)O)CCN(CC(=O)O)CCN(CC(=O)O)CC1)C(=O)N[C@@H](CC(=O)O)C(=O)N[C@@H](Cc1ccccc1)C(N)=O", "note": "[[^177Lu]Lu-(R)-DOTAGA-PP-F11N, metal not drawn]", "values": [
      {"measurement": "logD", "setting": "[2]; pH 7.4", "result": "-3.95 ± 0.06"}
    ]},
    {"smiles": "CCCC[C@H](NC(=O)[C@H](Cc1c[nH]c2ccccc12)NC(=O)CNC(=O)[C@H](Cc1ccc(O)cc1)NC(=O)[C@H](C)NC(=O)CC[C@@H](NC(=O)CC[C@@H](NC(=O)CC[C@@H](NC(=O)CC[C@@H](NC(=O)CC[C@@H](NC(=O)CC[C@@H](NC(=O)CC[C@@H](NC(=O)CC[C@@H](NC(=O)[C@@H](CNC(=O)c1ccc([Si](F)(C(C)(C)C)C(C)(C)C)cc1)NC(=O)CN1CCN(CC(=O)O)CCN(CC(=O)O)CCN(CC(=O)O)CC1)C(=O)O)C(=O)O)C(=O)O)C(=O)O)C(=O)O)C(=O)O)C(=O)O)C(=O)O)C(=O)N[C@@H](CC(=O)O)C(=O)N[C@@H](Cc1ccccc1)C(N)=O", "note": "[[^67Ga]Ga-DOTA-rhCCK-18, metal not drawn]", "values": [
      {"measurement": "SiOH-containing analog (%)", "setting": "[3]", "result": "53.6 ± 6.6", "unit": "%"},
      {"measurement": "remaining at 24 h, 5 µM", "setting": "[3]", "result": "43.7 ± 6.9", "unit": "%"}
    ]},
    {"smiles": "CCCC[C@H](NC(=O)[C@H](Cc1c[nH]c2ccccc12)NC(=O)CNC(=O)[C@H](Cc1ccc(O)cc1)NC(=O)[C@H](C)NC(=O)CC[C@@H](NC(=O)CC[C@@H](NC(=O)CC[C@@H](NC(=O)CC[C@@H](NC(=O)CC[C@@H](NC(=O)CC[C@@H](NC(=O)[C@@H](CNC(=O)c1ccc([Si](F)(C(C)(C)C)C(C)(C)C)cc1)NC(=O)CN1CCN(CC(=O)O)CCN(CC(=O)O)CCN(CC(=O)O)CC1)C(=O)O)C(=O)O)C(=O)O)C(=O)O)C(=O)O)C(=O)O)C(=O)N[C@@H](CC(=O)O)C(=O)N[C@@H](Cc1ccccc1)C(N)=O", "note": "[[^67Ga]Ga-DOTA-rhCCK-16, metal not drawn]", "values": [
      {"measurement": "SiOH-containing analog (%)", "setting": "[3]; listed as [67Ga]Ga-DOTA-rhCCK-16", "result": "56.5 ± 8.0", "unit": "%"},
      {"measurement": "remaining at 24 h, 5 µM", "setting": "[3]", "result": "39.6 ± 7.9", "unit": "%"}
    ]},
    {"smiles": "CCCC[C@H](NC(=O)[C@H](Cc1c[nH]c2ccccc12)NC(=O)CNC(=O)[C@H](Cc1ccc(O)cc1)NC(=O)[C@H](C)NC(=O)CC[C@@H](NC(=O)CC[C@@H](NC(=O)CC[C@@H](NC(=O)CC[C@@H](NC(=O)CC[C@@H](NC(=O)CC[C@@H](NC(=O)CC[C@@H](NC(=O)CC[C@@H](NC(=O)[C@@H](CNC(=O)c1ccc([Si](F)(C(C)(C)C)C(C)(C)C)cc1)NC(=O)CC[C@H](C(=O)O)N1CCN(CC(=O)O)CCN(CC(=O)O)CCN(CC(=O)O)CC1)C(=O)O)C(=O)O)C(=O)O)C(=O)O)C(=O)O)C(=O)O)C(=O)O)C(=O)O)C(=O)N[C@@H](CC(=O)O)C(=O)N[C@@H](Cc1ccccc1)C(N)=O", "note": "[(R)-DOTAGA-rhCCK-18]", "values": [
      {"measurement": "IC50", "setting": "CCK-2R", "result": "20.4 ± 2", "unit": "nM"}
    ]}
  ]
}
